Like-named read-outs stand apart in the source and are kept apart here.
How the values were obtained:
EGFR L858R/T790M/C797S = EGFR L858R/T790M/C797S (Homo sapiens, UniProt P00533, C797S/L858R/T790M); experiment: Biochemical EGFR kinase assay (Lance Ultra TR-FRET), L858R/T790M/C797S
Description: (§1) Biochemical EGFR kinase assays were conducted using Lance Ultra time-resolved fluorescence resonance energy transfer (TR-FRET) technology from Perkin-Elmer. Compounds of the invention were initially diluted to 20 mM in 100% DMSO for storage and made into kinase buffer solution to create a compound concentration ranging from 0.003 μM and 10 μM.
(§2) Each kinase reactions were incubated at room temperature for 1 hour and then stopped by the addition of 4 μL of stop solution (10 mM EDTA). The specific Europium-labeled-anti-phosphopeptide antibody (PerkinElmer, AD0069) diluted in LANCE detection buffer was then added to a final concentration of 2 nM. After 60 minutes incubation at room temperature the LANCE signal was measured on an EnVision Multilabel Reader (Perkin-Elmer). Excitation wavelength was set at 320 nm and emission monitored at 615 nm (donor) and 665 nm (acceptor). The IC50 values were determined using GraphPad prism software (GraphPad Software, Inc., San Diego, CA, USA).

EGFR wildtype (WT) = EGFR wildtype (WT) (Homo sapiens, UniProt P00533); experiment: Biochemical EGFR kinase assay (Lance Ultra TR-FRET), wildtype
Description: as §1, §2

EGFR del19/C797S = EGFR del19/C797S (Homo sapiens, UniProt P00533, C797S/DEL746-750); experiment: Biochemical EGFR kinase assay (Lance Ultra TR-FRET), del19/C797S
Description: as §1, §2

EGFR del19/T790M/C797S = EGFR del19/T790M/C797S (Homo sapiens, UniProt P00533, C797S/DEL746-750/T790M); experiment: Biochemical EGFR kinase assay (Lance Ultra TR-FRET), del19/T790M/C797S
Description: as §1, §2

[1] = Km ATP, read-out: IC50 L858R/T790M/C797S (nM) Km ATP
[2] = Km ATP, read-out: IC50 WT (nM) Km ATP
[3] = Km ATP, read-out: IC50 del19/C797S (nM) Km ATP
[4] = Km ATP, read-out: IC50 del19/T790M/C797S (nM) Km ATP

Chain of EGFR del19/T790M/C797S (P00533 with tags, fused parts or gaps DEL746-750/T790M/C797S): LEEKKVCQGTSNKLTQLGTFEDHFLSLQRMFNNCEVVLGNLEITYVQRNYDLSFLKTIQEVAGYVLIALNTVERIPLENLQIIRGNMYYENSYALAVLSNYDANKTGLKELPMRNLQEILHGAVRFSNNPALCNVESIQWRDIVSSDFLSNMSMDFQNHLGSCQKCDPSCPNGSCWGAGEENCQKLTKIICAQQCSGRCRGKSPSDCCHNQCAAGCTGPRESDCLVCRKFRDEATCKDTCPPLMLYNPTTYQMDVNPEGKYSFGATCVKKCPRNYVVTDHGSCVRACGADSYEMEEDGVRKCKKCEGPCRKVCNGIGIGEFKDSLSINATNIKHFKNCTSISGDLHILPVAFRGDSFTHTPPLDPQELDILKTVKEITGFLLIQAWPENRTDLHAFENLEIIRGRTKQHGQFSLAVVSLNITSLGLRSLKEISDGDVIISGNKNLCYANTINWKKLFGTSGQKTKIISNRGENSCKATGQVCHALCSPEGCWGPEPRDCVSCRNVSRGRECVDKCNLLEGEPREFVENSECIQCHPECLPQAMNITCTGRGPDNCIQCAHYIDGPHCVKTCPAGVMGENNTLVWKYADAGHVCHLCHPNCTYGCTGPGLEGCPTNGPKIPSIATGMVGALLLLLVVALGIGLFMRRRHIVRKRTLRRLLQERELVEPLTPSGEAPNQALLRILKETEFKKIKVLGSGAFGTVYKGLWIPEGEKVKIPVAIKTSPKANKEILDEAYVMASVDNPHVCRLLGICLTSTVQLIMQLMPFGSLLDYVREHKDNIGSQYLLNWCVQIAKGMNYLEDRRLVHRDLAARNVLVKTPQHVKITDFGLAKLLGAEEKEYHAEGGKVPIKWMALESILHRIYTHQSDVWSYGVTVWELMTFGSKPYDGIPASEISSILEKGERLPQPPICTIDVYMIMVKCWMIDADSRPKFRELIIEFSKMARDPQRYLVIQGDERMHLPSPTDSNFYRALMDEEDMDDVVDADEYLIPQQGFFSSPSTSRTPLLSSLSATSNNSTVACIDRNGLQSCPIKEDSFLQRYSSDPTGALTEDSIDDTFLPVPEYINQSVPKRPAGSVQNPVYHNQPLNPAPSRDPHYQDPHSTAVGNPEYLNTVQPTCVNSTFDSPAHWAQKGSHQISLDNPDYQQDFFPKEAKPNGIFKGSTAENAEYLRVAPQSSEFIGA
Chain of EGFR wildtype (WT) (P00533 25-1210): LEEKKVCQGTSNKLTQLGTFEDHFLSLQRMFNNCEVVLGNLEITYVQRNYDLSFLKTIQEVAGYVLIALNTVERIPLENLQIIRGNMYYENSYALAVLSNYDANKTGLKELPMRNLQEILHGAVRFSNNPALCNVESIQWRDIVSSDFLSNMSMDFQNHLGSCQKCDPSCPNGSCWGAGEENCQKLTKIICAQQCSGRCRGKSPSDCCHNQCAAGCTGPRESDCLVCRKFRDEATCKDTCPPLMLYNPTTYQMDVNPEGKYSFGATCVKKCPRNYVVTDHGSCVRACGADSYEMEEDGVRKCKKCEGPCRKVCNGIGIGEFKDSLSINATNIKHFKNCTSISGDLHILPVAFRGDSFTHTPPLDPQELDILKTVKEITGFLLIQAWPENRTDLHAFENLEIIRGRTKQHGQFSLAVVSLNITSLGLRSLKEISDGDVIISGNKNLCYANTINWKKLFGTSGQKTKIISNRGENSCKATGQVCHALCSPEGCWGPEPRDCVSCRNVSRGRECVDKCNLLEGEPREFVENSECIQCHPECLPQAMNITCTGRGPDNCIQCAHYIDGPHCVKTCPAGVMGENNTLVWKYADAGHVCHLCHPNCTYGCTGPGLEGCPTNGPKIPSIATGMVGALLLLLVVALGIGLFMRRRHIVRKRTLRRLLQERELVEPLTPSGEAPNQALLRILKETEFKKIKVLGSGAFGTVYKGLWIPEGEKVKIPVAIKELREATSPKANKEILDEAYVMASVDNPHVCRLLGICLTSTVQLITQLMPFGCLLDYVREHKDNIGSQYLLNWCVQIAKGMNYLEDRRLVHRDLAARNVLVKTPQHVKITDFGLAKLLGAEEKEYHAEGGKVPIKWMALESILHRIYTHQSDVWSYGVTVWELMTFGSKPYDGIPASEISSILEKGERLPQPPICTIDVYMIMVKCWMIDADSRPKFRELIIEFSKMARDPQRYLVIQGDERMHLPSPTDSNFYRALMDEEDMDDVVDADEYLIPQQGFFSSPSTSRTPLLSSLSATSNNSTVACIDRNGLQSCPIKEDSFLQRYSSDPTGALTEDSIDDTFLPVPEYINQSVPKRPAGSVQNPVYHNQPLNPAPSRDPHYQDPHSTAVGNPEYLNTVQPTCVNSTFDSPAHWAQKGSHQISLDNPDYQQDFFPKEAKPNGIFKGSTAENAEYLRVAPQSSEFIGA
Chain of EGFR L858R/T790M/C797S (P00533 25-1210 T790M/C797S/L858R): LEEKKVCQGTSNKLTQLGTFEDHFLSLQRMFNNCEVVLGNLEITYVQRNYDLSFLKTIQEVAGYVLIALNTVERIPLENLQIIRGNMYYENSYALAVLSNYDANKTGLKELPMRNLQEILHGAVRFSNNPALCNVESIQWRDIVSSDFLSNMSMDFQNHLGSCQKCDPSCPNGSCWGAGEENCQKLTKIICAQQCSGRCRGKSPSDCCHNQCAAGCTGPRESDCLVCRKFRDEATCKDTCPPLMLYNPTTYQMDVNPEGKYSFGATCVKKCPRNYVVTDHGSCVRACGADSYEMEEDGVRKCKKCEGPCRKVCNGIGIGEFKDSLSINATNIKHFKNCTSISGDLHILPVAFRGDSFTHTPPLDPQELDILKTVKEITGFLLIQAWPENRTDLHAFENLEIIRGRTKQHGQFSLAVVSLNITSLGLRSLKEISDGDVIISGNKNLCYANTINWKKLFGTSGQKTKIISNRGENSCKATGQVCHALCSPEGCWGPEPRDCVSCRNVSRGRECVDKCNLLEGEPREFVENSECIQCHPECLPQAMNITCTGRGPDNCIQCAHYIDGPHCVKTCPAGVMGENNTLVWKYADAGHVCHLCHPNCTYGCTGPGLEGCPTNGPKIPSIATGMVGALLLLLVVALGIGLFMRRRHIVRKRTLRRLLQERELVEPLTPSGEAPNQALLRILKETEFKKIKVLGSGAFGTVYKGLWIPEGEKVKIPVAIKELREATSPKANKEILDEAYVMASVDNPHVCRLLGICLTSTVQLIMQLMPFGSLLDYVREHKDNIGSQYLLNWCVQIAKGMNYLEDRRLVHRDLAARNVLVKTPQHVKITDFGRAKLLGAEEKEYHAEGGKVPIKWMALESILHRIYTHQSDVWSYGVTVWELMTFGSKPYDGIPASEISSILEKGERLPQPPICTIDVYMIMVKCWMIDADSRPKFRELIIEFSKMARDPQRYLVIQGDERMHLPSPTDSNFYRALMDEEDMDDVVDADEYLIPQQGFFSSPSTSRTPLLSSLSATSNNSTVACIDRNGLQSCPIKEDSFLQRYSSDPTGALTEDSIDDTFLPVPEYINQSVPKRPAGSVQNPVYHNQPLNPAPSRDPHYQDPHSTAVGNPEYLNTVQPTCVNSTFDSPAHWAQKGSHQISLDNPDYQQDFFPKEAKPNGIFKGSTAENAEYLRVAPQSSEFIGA
Chain of EGFR del19/C797S (P00533 with tags, fused parts or gaps DEL746-750/C797S): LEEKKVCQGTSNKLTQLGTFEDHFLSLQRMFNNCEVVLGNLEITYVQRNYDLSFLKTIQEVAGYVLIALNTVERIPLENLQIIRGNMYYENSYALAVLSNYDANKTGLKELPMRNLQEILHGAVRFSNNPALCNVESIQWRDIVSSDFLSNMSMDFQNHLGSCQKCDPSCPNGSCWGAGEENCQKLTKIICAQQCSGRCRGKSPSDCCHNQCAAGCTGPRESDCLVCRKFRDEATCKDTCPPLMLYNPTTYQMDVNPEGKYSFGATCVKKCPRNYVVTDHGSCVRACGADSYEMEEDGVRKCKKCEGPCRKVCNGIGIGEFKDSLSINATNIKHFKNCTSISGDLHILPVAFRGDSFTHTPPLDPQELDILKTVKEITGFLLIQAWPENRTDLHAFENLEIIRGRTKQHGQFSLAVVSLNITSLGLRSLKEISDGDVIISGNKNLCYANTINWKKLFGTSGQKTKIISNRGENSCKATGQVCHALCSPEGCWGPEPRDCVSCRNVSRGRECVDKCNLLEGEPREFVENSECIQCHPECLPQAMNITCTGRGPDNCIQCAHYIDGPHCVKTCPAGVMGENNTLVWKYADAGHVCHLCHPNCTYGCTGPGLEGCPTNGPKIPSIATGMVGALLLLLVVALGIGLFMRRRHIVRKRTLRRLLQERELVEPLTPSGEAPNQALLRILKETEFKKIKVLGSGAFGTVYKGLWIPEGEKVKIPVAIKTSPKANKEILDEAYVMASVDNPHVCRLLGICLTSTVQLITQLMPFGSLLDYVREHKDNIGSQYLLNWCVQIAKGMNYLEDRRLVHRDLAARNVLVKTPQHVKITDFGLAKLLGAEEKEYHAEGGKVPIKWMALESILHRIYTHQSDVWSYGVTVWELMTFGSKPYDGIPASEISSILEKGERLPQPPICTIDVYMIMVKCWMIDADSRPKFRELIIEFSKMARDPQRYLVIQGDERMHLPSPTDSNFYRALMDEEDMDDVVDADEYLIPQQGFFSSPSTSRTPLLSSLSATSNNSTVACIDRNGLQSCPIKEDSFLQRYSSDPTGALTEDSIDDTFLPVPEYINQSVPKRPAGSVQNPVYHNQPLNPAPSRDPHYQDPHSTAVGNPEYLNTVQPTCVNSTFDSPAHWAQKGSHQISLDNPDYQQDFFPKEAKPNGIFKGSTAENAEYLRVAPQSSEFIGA

SMILES | IC50 (EGFR L858R/T790M/C797S; [1]) | IC50 (EGFR wildtype (WT); [2]) | IC50 (EGFR del19/C797S; [3]) | IC50 (EGFR del19/T790M/C797S; [4]) | IC50 (EGFR L858R/T790M/C797S; IC50 L858R/T790M/C797S (nM) 100 μM ATP, 100 μM ATP) | IC50 (EGFR wildtype (WT); IC50 WT (nM) 100 μM ATP, 100 μM ATP) | IC50 (EGFR del19/C797S; IC50 del19/C797S (nM) 100 μM ATP, 100 μM ATP) | IC50 (EGFR del19/T790M/C797S; IC50 del19/T790M/C797S (nM) 100 μM ATP, 100 μM ATP)
CCCNc1cc(Nc2ccnc(-c3cnn(S(=O)(=O)C4CC4)c3)n2)ncc1C(C)=O [Example 45, 1-(6-((2-(1-(Cyclopropylsulfonyl)-1H-pyrazol-4-yl)pyrimidin-4-yl)amino)-4-(propylamino)pyridin-3-yl)ethan-1-one] | 3.1 nM | 751 nM | 205 nM | 0.9 nM |  |  |  | 
O=C(c1cnc(Nc2ccnc(-c3cnn(S(=O)(=O)C4CC4)c3)n2)cc1NCCCC(F)F)C1CC1 [Example 5, Cyclopropyl(6-((2-(1-(cyclopropylsulfonyl)-1H-pyrazol-4-yl)pyrimidin-4-yl)amino)-4-((4,4-difluorobutyl)amino)pyridin-3-yl)methanone] | 18 nM | 2970 nM | 132 nM | 1.8 nM |  |  |  | 
O=C(c1cnc(Nc2ccnc(-c3cnn(S(=O)(=O)C4CC4)c3)n2)cc1NC[C@H]1CC[C@H](Cn2cccn2)CC1)C1CC1 [Example 44, (4-((((1r,4r)-4-((1H-Pyrazol-1-yl)methyl)cyclohexyl)methyl)amino)-6-((2-(1-(cyclopropylsulfonyl)-1H-pyrazol-4-yl)pyrimidin-4-yl)amino)pyridin-3-yl)(cyclopropyl)methanone] |  | 796 nM | 242 nM | 9 nM |  |  |  | 
CC(C)Oc1cc(Nc2ccnc(-c3cnn(S(=O)(=O)C4CC4)c3)n2)ncc1NC(=O)C1CC1 [Example 42, N-(6-((2-(1-(Cyclopropylsulfonyl)-1H-pyrazol-4-yl)pyrimidin-4-yl)amino)-4-isopropoxypyridin-3-yl)cyclopropanecarboxamide] | 10.5 nM | 123 nM | 213 nM | 1 nM |  |  |  | 
C[C@H](CCO)Nc1cc(Nc2ccnc(-c3cnn(S(=O)(=O)C4CC4)c3)n2)ncc1C(=O)C1CC1 [Example 7, (R)-Cyclopropyl(6-((2-(1-(cyclopropylsulfonyl)-1H-pyrazol-4-yl)pyrimidin-4-yl)amino)-4-((4-hydroxybutan-2-yl)amino)pyridin-3-yl)methanone] | 2.7 nM | 426 nM | 49.2 nM | 0.5 nM |  |  |  | 
O=C(c1cnc(Nc2ccnc(-c3cnn(S(=O)(=O)C4CC4)c3)n2)cc1NCC1CCCCO1)C1CC1 (stereo not drawn) [Example 10, Cyclopropyl(6-((2-(1-(cyclopropylsulfonyl)-1H-pyrazol-4-yl)pyrimidin-4-yl)amino)-4-(((tetrahydro-2H-pyran-2-yl)methyl)amino)pyridin-3-yl)methanone] | 13.7 nM | 1170 nM | 553 nM | 2.1 nM |  |  |  | 
CN(C)Cc1ccc(CNc2cc(Nc3ccnc(-c4cnn(S(=O)(=O)C5CC5)c4)n3)ncc2C(=O)C2CC2)cn1 [Example 19, Cyclopropyl(6-((2-(1-(cyclopropylsulfonyl)-1H-pyrazol-4-yl)pyrimidin-4-yl)amino)-4-(((6-((dimethylamino)methyl)pyridin-3-yl)methyl)amino)pyridin-3-yl)methanone] | 3.8 nM | 682 nM | 159 nM | 3.1 nM |  |  |  | 
O=C(c1cnc(Nc2ccnc(-c3cnn(S(=O)(=O)C4CC4)c3)n2)cc1NCCC1CCOC1)C1CC1 (stereo not drawn) [Example 6, Cyclopropyl(6-((2-(1-(cyclopropylsulfonyl)-1H-pyrazol-4-yl)pyrimidin-4-yl)amino)-4-((2-(tetrahydrofuran-3-yl)ethyl)amino)pyridin-3-yl)methanone] | 4.5 nM | 890 nM | 78 nM | 0.6 nM |  |  |  | 
CC(O)C(C)(C)Nc1cc(Nc2ccnc(-c3cnn(S(=O)(=O)C4CC4)c3)n2)ncc1C(=O)C1CC1 (stereo not drawn) [Example 12, Cyclopropyl(6-((2-(1-(cyclopropylsulfonyl)-1H-pyrazol-4-yl)pyrimidin-4-yl)amino)-4-((3-hydroxy-2-methylbutan-2-yl)amino)pyridin-3-yl)methanone] | 0.6 nM | 228 nM | 58.2 nM | 0.4 nM |  |  |  | 
O=C(c1cnc(Nc2ccnc(-c3cnn(S(=O)(=O)C4CC4)c3)n2)cc1NC1CC1)C1CC1 [Example 2, Cyclopropyl(4-(cyclopropylamino)-6-((2-(1-(cyclopropylsulfonyl)-1H-pyrazol-4-yl)pyrimidin-4-yl)amino)pyridin-3-yl)methanone] |  |  | 536 nM | 72 nM |  |  |  | 
CC(NCC1CCC(CNc2cc(Nc3ccnc(-c4cnn(S(=O)(=O)C5CC5)c4)n3)ncc2C(=O)C2CC2)CC1)C(F)F (stereo not drawn) [Example 73, Cyclopropyl(6-((2-(1-(cyclopropylsulfonyl)-1H-pyrazol-4-yl)pyrimidin-4-yl)amino)-4-((((1r,4r)-4-(((1,1-difluoropropan-2-yl)amino)methyl)cyclohexyl)methyl)amino)pyridin-3-yl)methanone] | 3.1 nM | 691 nM | 16.1 nM | 17.4 nM |  |  |  | 
O=C(c1cnc(Nc2ccnc(-c3cnn(S(=O)(=O)C4CC4)c3)n2)cc1NCCCCF)C1CC1 [Example 4, Cyclopropyl(6-((2-(1-(cyclopropylsulfonyl)-1H-pyrazol-4-yl)pyrimidin-4-yl)amino)-4-((4-fluorobutyl)amino)pyridin-3-yl)methanone] | 11.6 nM | 2400 nM | 83.6 nM | 1.3 nM |  |  |  | 
C[C@@H](O)CCNc1cc(Nc2ccnc(-c3cnn(S(=O)(=O)C4CC4)c3)n2)ncc1C(=O)C1CC1 [Example 11, (R)-Cyclopropyl(6-((2-(1-(cyclopropylsulfonyl)-1H-pyrazol-4-yl)pyrimidin-4-yl)amino)-4-((3-hydroxybutyl)amino)pyridin-3-yl)methanone] | 2.3 nM | 188 nM | 58.9 nM | 0.4 nM |  |  |  | 
CN(C)CC1CCC(CNc2cc(Nc3ccnc(-c4cnn(C5CCOC5)c4)n3)ncc2C(=O)C2CC2)CC1 (stereo not drawn) [Example 62, Cyclopropyl(4-((((1r,4r)-4-((dimethylamino)methyl)cyclohexyl)methyl)amino)-6-((2-(1-(tetrahydrofuran-3-yl)-1H-pyrazol-4-yl)pyrimidin-4-yl)amino)pyridin-3-yl)methanone] | 9.4 nM |  | 363 nM | 9.8 nM |  |  |  | 
CN(C)CCNc1cc(Nc2ccnc(-c3cnn(S(=O)(=O)C4CC4)c3)n2)ncc1C(=O)C1CC1 [Example 14, Cyclopropyl(6-((2-(1-(cyclopropylsulfonyl)-1H-pyrazol-4-yl)pyrimidin-4-yl)amino)-4-((2-(dimethylamino)ethyl)amino)pyridin-3-yl)methanone] | 31.9 nM | 3400 nM | 459 nM | 4.7 nM |  |  |  | 
CN(C)CCNC1CCC(Nc2cc(Nc3ccnc(-c4cnn(S(=O)(=O)C5CC5)c4)n3)ncc2C(=O)C2CC2)CC1 (stereo not drawn) [Example 53, Cyclopropyl(6-((2-(1-(cyclopropylsulfonyl)-1H-pyrazol-4-yl)pyrimidin-4-yl)amino)-4-((4-((2-(dimethylamino)ethyl)amino)cyclohexyl)amino)pyridin-3-yl)methanone] |  |  |  |  | 0.5 nM | 1900 nM | 1.8 nM | 0.5 nM
O=C(c1cnc(Nc2ccnc(-c3cnn(S(=O)(=O)C4CC4)c3)n2)cc1NCc1cnn(CCF)c1)C1CC1 [Example 17, Cyclopropyl(6-((2-(1-(cyclopropylsulfonyl)-1H-pyrazol-4-yl)pyrimidin-4-yl)amino)-4-(((1-(2-fluoroethyl)-1H-pyrazol-4-yl)methyl)amino)pyridin-3-yl)methanone] | 15.5 nM |  | 1 nM | 10.9 nM |  |  |  | 
O=C(c1cnc(Nc2ccnc(-c3cnn(S(=O)(=O)C4CC4)c3)n2)cc1NCC1CCN(CC2CC2)CC1)C1CC1 [Example 18, Cyclopropyl(4-(((1-(cyclopropylmethyl)piperidin-4-yl)methyl)amino)-6-((2-(1-(cyclopropylsulfonyl)-1H-pyrazol-4-yl)pyrimidin-4-yl)amino)pyridin-3-yl)methanone] | 17.2 nM |  | 1 nM | 13.5 nM |  |  |  | 
CN(C)C[C@H]1CC[C@H](CNc2cc(Nc3ccnc(-c4cnn(S(=O)(=O)C5CC5)c4)n3)ncc2C(=O)N2CC(F)(F)C2)CC1 [Example 82, (6-((2-(1-(Cyclopropylsulfonyl)-1H-pyrazol-4-yl)pyrimidin-4-yl)amino)-4-((((1r,4r)-4-((dimethylamino)methyl)cyclohexyl)methyl)amino)pyridin-3-yl)(3,3-difluoroazetidin-1-yl)methanone] |  | 76.2 nM | 24.6 nM | 2.8 nM |  |  |  | 
CC(C)Nc1cc(Nc2ccnc(-c3cnn(S(=O)(=O)C4CC4)c3)n2)ncc1C(=O)NCC(F)F [Example 78, 6-((2-(1-(Cyclopropylsulfonyl)-1H-pyrazol-4-yl)pyrimidin-4-yl)amino)-N-(2,2-difluoroethyl)-4-(isopropylamino)nicotinamide] |  | 1140 nM | 225 nM | 14.9 nM |  |  |  | 

From patent US11945798B2, “Substituted aminopyridine compounds as EGFR inhibitors” (YUHAN CORPORATION, priority 2021, dated 2024)
